Experimental data taken from ChEMBL document CHEMBL5143737, “Identification of Human Alanine-Glyoxylate Aminotransferase Ligands as Pharmacological Chaperones for Variants Associated with Primary Hyperoxaluria Type 1” (J Med Chem, 2022).

What was measured:
Type in all cases: toxicity, cell-based, Cricetulus griseus
Conditions in all cases: chinese hamster, 168 h, time 7 day
[1] = tested on: CHO; test: Cytotoxicity against CHO cells expressing AGT G41R variant and glycolate oxidase assessed as reduction in cell viability at 50 uM measured after 7 days by crystal violet staining assay
[2] = tested on: CHO; test: Cytotoxicity against CHO cells expressing AGT and glycolate oxidase assessed as reduction in cell viability at 50 uM measured after 7 days by crystal violet staining assay
[3] = tested on: CHO; test: Cytotoxicity against CHO cells expressing AGT G41R variant and glycolate oxidase assessed reduction in cell viability at 50 uM measured after 7 days in presence of pyridoxine by crystal violet staining assay

SMILES	Activity [1]	Activity [2]	Activity [3]
Cl.NOCc1ccc(F)cc1F	Non-Toxic	Non-Toxic	–
NOCc1cc2ccccc2s1	–	Non-Toxic	–
COc1c(C)cnc(CON)c1C	Non-Toxic	Non-Toxic	Non-Toxic
NOCc1cccc(-c2ccc(C(F)(F)F)cc2)c1	Non-Toxic	Non-Toxic	Non-Toxic
CN1CCN(c2cccc(CON)c2)CC1	Toxic	Toxic	Toxic
